Assay [1] concerns the target Tyrosine-protein kinase SYK (Homo sapiens) (UniProt P43405). The assay is described as follows: Inhibition of human SYK assessed as residual activity at 1 uM relative to control.
Assay [2] addresses Serine/threonine-protein kinase PLK1 (Homo sapiens) (UniProt P53350). The assay is described as follows: Inhibition of human PLK1 assessed as residual activity at 1 uM relative to control.
The target of assay [3] is T1, MAP kinase-activated protein kinase 5 (Homo sapiens) (UniProt Q8IW41).
T1 sequence (whole entry): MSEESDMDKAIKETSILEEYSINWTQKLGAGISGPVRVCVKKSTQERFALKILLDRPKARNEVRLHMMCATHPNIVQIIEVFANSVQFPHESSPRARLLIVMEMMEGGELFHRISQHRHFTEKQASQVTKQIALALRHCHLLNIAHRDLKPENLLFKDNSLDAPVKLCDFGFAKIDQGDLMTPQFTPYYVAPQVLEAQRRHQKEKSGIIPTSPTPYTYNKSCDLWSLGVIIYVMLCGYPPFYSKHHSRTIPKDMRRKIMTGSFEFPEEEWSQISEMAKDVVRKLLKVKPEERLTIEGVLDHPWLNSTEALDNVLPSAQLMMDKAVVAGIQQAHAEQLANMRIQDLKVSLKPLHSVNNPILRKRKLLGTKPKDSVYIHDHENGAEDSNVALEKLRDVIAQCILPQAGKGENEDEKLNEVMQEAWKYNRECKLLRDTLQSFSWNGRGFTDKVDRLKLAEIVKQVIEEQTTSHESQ
Description: Inhibition of human PRAK assessed as residual activity at 1 uM relative to control.

The target in assay [4] is Protein kinase C alpha type (Homo sapiens) (UniProt P17252). The assay is described as follows: Inhibition of human PKCalpha assessed as residual activity at 1 uM relative to control.
In assay [5] the target is Serine/threonine-protein kinase PAK 4 (Homo sapiens) (UniProt O96013). The assay is described as follows: Inhibition of human PAK4 assessed as residual activity at 1 uM relative to control.
Assay [6] concerns the target Insulin receptor (Homo sapiens) (UniProt P06213). Description: Inhibition of human IR assessed as residual activity at 1 uM relative to control.
Assay [7] addresses Calcium/calmodulin-dependent protein kinase type 1 (Homo sapiens) (UniProt Q14012). The assay is described as follows: Inhibition of human CAMK1 assessed as residual activity at 1 uM relative to control.
Assay [8] deals with Tyrosine-protein kinase Yes (Homo sapiens) (UniProt P07947). The assay is described as follows: Inhibition of human YES1 assessed as residual activity at 10 uM relative to control.
Assay [9] has as its target Ribosomal protein S6 kinase beta-1 (Homo sapiens) (UniProt P23443). Description: Inhibition of human S6K1 assessed as residual activity at 10 uM relative to control.
For assay [10], the target named is Serine/threonine-protein kinase Nek6 (Homo sapiens) (UniProt Q9HC98). The assay is described as follows: Inhibition of human NEK6 assessed as residual activity at 10 uM relative to control.
Assay [11] concerns the target Insulin receptor (Homo sapiens) (UniProt P06213). Description: Inhibition of human IR assessed as residual activity at 10 uM relative to control.
For assay [12], the target named is T2, Inhibitor of nuclear factor kappa-B kinase subunit epsilon (Homo sapiens) (UniProt Q14164).
T2 sequence (whole entry): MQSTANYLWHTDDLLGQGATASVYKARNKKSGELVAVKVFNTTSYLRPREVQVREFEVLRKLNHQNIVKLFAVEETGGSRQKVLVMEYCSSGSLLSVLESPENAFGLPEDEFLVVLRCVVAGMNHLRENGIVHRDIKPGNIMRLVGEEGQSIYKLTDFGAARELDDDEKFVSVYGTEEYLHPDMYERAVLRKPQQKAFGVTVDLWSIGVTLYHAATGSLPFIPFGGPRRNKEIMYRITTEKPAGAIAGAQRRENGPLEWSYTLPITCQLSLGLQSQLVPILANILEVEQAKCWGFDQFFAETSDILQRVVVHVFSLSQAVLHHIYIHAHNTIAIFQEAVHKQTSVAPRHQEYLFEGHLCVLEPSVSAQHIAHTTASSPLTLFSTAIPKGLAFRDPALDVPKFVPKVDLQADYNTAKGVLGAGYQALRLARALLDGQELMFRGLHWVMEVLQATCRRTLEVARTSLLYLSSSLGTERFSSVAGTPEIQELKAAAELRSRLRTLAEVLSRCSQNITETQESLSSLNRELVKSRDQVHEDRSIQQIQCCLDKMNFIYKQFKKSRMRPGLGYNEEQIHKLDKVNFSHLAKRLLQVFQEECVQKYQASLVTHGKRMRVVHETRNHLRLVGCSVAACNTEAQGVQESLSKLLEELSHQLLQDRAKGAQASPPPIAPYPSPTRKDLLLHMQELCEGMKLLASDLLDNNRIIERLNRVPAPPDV
The assay is described as follows: Inhibition of human IKKepsilon assessed as residual activity at 10 uM relative to control.

Assay [13] has as its target Casein kinase II (Homo sapiens) (UniProt P67870+P68400+P19784). Description: Inhibition of human CK2 assessed as residual activity at 10 uM relative to control. The format is protein-complex assay.
For assay [14], the target named is Calcium/calmodulin-dependent protein kinase type 1 (Homo sapiens) (UniProt Q14012). Description: Inhibition of human CAMK1 assessed as residual activity at 10 uM relative to control.
Assay [15] has as its target Myosin light chain kinase, smooth muscle (Homo sapiens) (UniProt Q15746). The assay is described as follows: Inhibition of human smMLCK assessed as residual activity at 1 uM relative to control.
Assay [16] addresses Serine/threonine-protein kinase N2 (Homo sapiens) (UniProt Q16513). The assay is described as follows: Inhibition of human PRK2 assessed as residual activity at 1 uM relative to control.
A further assay is filed under the species Oryctolagus cuniculus. Description: Inhibition of rabbit MKK1 assessed as residual activity at 1 uM relative to control.
The target in assay [17] is Insulin-like growth factor 1 receptor (Homo sapiens) (UniProt P08069). Description: Inhibition of human IGF-1R assessed as residual activity at 1 uM relative to control.
Assay [18] deals with Dual specificity tyrosine-phosphorylation-regulated kinase 1A (Rattus norvegicus) (UniProt Q63470). The assay is described as follows: Inhibition of rat DYRK1alpha assessed as residual activity at 1 uM relative to control.
Assay [19] has as its target Serine/threonine-protein kinase N2 (Homo sapiens) (UniProt Q16513). The assay is described as follows: Inhibition of human PRK2 assessed as residual activity at 10 uM relative to control.
The target in assay [20] is MAP kinase-interacting serine/threonine-protein kinase 1 (Homo sapiens) (UniProt Q9BUB5). Description: Inhibition of human MNK1 assessed as residual activity at 10 uM relative to control.
Assay [21] deals with Tyrosine-protein kinase BTK (Homo sapiens) (UniProt Q06187). Description: Inhibition of human BTK assessed as residual activity at 10 uM relative to control.

Sequence of Myosin light chain kinase, smooth muscle (Homo sapiens) (Q15746 whole entry): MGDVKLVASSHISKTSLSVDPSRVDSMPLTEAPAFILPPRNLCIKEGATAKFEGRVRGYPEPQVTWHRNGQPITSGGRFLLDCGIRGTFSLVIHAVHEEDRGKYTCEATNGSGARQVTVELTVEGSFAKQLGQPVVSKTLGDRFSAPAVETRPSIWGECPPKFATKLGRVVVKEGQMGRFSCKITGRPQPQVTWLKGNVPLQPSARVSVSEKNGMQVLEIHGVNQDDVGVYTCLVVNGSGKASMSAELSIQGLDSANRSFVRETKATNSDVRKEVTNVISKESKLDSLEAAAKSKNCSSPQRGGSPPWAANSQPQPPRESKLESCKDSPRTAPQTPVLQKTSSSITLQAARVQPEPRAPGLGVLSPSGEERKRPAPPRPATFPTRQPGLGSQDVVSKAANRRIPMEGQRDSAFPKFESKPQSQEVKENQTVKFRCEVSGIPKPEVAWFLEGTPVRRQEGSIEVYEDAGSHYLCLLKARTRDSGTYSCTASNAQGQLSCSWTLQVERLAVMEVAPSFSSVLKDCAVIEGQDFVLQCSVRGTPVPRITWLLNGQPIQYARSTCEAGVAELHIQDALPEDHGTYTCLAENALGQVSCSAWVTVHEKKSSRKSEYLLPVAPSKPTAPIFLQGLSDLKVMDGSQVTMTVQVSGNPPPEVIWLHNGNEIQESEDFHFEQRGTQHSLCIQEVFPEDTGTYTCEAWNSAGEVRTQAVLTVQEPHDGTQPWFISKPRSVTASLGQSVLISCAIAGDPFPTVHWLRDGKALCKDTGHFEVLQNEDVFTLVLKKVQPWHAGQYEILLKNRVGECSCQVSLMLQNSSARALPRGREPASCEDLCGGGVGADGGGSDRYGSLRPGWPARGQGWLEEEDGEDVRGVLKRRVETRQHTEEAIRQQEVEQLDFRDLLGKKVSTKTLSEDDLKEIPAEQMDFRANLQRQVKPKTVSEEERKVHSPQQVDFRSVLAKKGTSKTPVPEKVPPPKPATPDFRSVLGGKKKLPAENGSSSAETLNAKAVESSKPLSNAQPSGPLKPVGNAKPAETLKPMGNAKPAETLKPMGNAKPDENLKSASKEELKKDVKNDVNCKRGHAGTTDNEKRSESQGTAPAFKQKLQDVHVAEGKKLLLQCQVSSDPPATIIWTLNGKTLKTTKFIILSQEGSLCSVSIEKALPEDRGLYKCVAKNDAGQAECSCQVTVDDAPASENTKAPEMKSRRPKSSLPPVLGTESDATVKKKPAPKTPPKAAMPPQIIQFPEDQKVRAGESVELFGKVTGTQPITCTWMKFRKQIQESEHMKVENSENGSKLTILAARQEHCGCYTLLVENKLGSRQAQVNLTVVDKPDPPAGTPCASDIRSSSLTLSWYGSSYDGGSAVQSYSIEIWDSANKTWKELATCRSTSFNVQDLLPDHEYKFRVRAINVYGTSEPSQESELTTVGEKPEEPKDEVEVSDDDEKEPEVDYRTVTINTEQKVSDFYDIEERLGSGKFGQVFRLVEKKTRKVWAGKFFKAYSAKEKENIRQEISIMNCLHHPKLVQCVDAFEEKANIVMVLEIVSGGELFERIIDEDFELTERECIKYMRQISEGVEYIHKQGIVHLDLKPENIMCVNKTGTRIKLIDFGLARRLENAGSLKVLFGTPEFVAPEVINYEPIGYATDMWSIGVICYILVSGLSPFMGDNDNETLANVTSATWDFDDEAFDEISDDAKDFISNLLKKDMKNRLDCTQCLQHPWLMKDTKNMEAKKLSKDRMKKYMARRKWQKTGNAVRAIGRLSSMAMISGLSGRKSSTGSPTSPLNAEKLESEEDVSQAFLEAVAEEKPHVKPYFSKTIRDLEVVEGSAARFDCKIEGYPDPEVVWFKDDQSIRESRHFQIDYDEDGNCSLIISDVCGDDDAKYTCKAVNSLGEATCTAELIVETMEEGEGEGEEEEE
Sequence of Serine/threonine-protein kinase PAK 4 (Homo sapiens) (O96013 whole entry, looked up): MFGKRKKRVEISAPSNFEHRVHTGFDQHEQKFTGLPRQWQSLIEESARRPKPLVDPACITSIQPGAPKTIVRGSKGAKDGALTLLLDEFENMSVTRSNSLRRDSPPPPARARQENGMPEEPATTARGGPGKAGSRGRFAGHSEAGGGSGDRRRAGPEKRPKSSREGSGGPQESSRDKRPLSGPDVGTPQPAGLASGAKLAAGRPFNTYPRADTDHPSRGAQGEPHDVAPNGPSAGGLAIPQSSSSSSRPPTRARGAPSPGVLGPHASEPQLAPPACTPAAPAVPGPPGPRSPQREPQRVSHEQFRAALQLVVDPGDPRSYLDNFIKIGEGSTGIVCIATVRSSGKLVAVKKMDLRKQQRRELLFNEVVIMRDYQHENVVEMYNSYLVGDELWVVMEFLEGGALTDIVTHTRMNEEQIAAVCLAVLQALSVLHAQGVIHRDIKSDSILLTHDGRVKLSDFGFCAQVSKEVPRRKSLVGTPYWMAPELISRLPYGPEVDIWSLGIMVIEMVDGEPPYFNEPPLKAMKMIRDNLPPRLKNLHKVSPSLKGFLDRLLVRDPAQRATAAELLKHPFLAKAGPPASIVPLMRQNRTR
Sequence of Serine/threonine-protein kinase PLK1 (Homo sapiens) (P53350 whole entry): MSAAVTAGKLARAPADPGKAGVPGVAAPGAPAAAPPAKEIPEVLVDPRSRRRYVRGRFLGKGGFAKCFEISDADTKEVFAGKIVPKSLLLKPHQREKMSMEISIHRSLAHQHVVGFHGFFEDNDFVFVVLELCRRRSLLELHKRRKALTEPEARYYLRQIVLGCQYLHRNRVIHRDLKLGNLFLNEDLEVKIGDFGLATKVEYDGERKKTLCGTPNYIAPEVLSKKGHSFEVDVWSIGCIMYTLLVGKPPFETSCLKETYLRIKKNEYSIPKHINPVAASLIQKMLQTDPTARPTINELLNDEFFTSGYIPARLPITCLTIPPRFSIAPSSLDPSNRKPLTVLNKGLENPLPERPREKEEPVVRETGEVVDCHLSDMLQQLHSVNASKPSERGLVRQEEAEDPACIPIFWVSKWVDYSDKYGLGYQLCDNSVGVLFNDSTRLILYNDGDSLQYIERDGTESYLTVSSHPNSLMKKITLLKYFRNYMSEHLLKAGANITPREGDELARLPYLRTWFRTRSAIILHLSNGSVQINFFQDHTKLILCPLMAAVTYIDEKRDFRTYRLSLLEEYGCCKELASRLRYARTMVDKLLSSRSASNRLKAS
Sequence of Tyrosine-protein kinase Yes (Homo sapiens) (P07947 2-543 limits assumed): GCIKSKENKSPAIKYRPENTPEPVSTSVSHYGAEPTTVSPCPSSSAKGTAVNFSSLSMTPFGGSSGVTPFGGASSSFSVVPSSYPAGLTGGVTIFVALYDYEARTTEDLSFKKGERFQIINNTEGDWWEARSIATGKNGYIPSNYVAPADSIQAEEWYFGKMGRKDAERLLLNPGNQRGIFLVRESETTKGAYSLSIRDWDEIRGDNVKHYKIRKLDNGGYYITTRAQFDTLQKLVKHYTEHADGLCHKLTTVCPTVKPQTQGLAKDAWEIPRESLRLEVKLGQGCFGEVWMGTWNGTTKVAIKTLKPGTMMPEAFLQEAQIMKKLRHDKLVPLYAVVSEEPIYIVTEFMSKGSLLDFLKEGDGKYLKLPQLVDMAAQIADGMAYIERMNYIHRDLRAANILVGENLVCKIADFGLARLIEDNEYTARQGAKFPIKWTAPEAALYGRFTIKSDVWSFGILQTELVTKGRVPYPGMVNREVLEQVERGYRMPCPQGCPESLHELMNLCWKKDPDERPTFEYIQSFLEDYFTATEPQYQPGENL
Sequence of Ribosomal protein S6 kinase beta-1 (Homo sapiens) (P23443 whole entry, looked up): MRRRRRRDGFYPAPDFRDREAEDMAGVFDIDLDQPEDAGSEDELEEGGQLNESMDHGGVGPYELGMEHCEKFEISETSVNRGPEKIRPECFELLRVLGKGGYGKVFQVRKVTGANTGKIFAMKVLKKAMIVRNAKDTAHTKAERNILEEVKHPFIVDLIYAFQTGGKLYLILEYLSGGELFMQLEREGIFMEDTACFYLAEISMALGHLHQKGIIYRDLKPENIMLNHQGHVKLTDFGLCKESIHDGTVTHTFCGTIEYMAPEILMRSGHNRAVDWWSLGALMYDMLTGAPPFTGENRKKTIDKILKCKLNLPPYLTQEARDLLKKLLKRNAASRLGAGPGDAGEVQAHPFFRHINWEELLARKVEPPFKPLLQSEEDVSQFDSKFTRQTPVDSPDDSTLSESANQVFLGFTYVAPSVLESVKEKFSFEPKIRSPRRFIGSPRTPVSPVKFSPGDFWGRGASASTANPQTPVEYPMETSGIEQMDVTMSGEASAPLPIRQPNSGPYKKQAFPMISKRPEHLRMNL
Sequence of Calcium/calmodulin-dependent protein kinase type 1 (Homo sapiens) (Q14012 whole entry, looked up): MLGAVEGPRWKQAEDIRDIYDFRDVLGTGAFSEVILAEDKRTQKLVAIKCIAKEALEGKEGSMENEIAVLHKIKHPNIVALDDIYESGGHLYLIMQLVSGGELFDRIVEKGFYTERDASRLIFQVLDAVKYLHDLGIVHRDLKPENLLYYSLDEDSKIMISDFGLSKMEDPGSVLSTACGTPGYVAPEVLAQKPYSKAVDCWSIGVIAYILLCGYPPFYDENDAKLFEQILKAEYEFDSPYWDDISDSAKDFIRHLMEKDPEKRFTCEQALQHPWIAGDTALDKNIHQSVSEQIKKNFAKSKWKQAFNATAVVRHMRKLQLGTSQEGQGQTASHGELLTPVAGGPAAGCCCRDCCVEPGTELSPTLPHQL
Sequence of Serine/threonine-protein kinase Nek6 (Homo sapiens) (Q9HC98 whole entry): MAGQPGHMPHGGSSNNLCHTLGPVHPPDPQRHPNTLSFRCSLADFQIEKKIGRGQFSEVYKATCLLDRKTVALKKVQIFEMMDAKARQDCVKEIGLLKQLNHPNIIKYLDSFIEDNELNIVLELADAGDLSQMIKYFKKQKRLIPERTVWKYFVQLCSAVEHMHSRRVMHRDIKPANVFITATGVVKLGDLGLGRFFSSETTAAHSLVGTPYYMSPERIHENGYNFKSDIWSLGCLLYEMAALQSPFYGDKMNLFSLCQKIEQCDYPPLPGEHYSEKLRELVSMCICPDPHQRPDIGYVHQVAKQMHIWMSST

On to `CC(=O)Nc1cccc(-c2cnc3[nH]nc(C)c3c2)c1`, for which the Activity was determined as 115% in assay [1]; 106% in assay [2]; 94.5% in assay [3]; 124% in assay [4]; 71.2% in assay [5]; 106% in [6]. In addition, the Activity in [7] is 111%; in assay [8], 56.9%; in assay [9] it was 69.8%; in assay [10], 94.3%; in [11], 94.9%; in assay [12], 52%. In addition, the Activity in assay [13] was found to be 80.5%; in assay [14] it was 68.4%; in assay [15] it was 72.9%; in assay [16], 99.9%; in the assay filed under Oryctolagus cuniculus, 75.7%; in assay [17], 70.8%. The Activity amounted to 76.2% in assay [18], 42.2% in assay [19], 19.3% in assay [20] and 16.5% in assay [21].
As to `CC(=O)Nc1nccc(-c2c(-c3ccccc3)noc2C)n1`, the Activity in assay [1] stood at 69%; in [2], 76%; in assay [3], 82.4%; in [4] it was 94%; in [5] it was 115%; in [6] it was 101%. The Activity in assay [7] is 103%; in [8], 78.2%; in assay [9] it was 99.9%; in assay [10], 78.8%; in assay [11], 100%; in assay [12] it was 82.4%. In addition, the Activity in [13] stood at 107%; in assay [14], 71%; in [15], 80.4%; in assay [16], 77.6%; in the assay listed under Oryctolagus cuniculus, 95.1%; in assay [17], 82.7%. Besides, the Activity in [18] is 91.9%; in assay [19], 96.5%; in assay [20], 102%; in assay [21], 99.7%.
On to `CCCC(=O)Nc1n[nH]c2ncc(-c3cccnc3)cc12`, for which the Activity was 99% in [1]; 97% in assay [2]; 82% in assay [3]; 79% in assay [4]; 89% in [5]; 101% in assay [6]. The Activity in [7] stood at 93%; in assay [8] it was 54%; in assay [9], 88%; in assay [10] it was 90%; in [11], 101%; in [12], 89%. Also, the Activity in [13] worked out at 68%; in assay [14] it was 83%; in assay [15], 87%; in [16], 81%; in the assay listed under Oryctolagus cuniculus, 90%; in assay [17], 88%. The Activity in assay [18] was determined as 5%; in assay [19], 76%; in assay [20], 91%; in assay [21] it was 69%.

(Values after ChEMBL document CHEMBL2429821, “A Casein kinase 1/Checkpoint kinase 1 pyrazolo-pyridine protein kinase inhibitor as novel activator of the p53 pathway” (Bioorg Med Chem Lett, 2013).)
